PubChem BioAssay (NCI)
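These data come from cells grown in 96-well plates and exposed to compound for 48 hours at five concentrations. GI50 = concentration required for 50% inhibition of growth. TGI denotes the concentration required for complete inhibition of growth.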

Legend:
Assay in all cases: DTP human tumour cell line panel, 48 h
DU-145 prostate = system: DU-145 prostate
EKVX NSCLC = system: EKVX NSCLC
MDA-MB-435 = system: MDA-MB-435
SW-620 colon = system: SW-620 colon
A498 renal = system: A498 renal
OVCAR-4 ovarian = system: OVCAR-4 ovarian
TK-10 renal = system: TK-10 renal
M14 melanoma = system: M14 melanoma
MOLT-4 leukemia = system: MOLT-4 leukemia
HOP-62 NSCLC = system: HOP-62 NSCLC

Structure (SMILES) | TGI (DU-145 prostate) | TGI (EKVX NSCLC) | TGI (MDA-MB-435) | TGI (SW-620 colon) | TGI (A498 renal) | TGI (OVCAR-4 ovarian) | TGI (TK-10 renal) | TGI (M14 melanoma) | TGI (MOLT-4 leukemia) | TGI (HOP-62 NSCLC) | GI50 (DU-145 prostate) | GI50 (EKVX NSCLC) | GI50 (MDA-MB-435) | GI50 (SW-620 colon) | GI50 (A498 renal) | GI50 (OVCAR-4 ovarian) | GI50 (TK-10 renal) | GI50 (MOLT-4 leukemia)
Nc1ccc(S(=O)(=O)c2ccc(N=[N+]([O-])c3ccc(S(=O)(=O)c4ccc(N)cc4)cc3)cc2)cc1 | > 100 µM | > 100 µM | > 100 µM | > 100 µM | > 85.1 µM | > 62.6 µM | > 88 µM | > 100 µM | > 100 µM | > 54.3 µM |  |  |  |  |  |  |  | 
CCOC(=S)SC/C(=N\OC(C)(C)OC)c1ccccc1 | > 100 µM | > 100 µM | 65.7 µM | > 100 µM | > 100 µM | > 100 µM | > 100 µM | > 100 µM | 65.2 µM | > 100 µM |  |  |  |  |  |  |  | 
O=C1O[C@H](COC(=O)c2ccccc2)[C@@H](OC(=O)c2ccccc2)C=C1OC(=O)c1ccccc1 | > 100 µM | 34.3 µM | 69.9 µM | 35.9 µM | > 100 µM | 48.7 µM | 75.7 µM | 31.9 µM | 56 µM | 39.4 µM |  |  |  |  |  |  |  | 
OC(C1CCCC1=N/N=C1/CCCC1C(O)(C(F)(F)Cl)C(F)(F)Cl)(C(F)(F)Cl)C(F)(F)Cl (centres undefined) | > 10 µM | > 10 µM | > 10 µM | > 10 µM | > 10 µM | > 10 µM | > 10 µM | > 10 µM | > 10 µM | > 10 µM |  |  |  |  |  |  |  | 
CCOc1ccc(C(c2c(O)c3ccccc3oc2=O)c2c(O)c3ccccc3oc2=O)cc1 | > 100 µM | > 100 µM | > 100 µM | > 100 µM | > 100 µM | > 100 µM | > 100 µM | > 100 µM | > 100 µM | > 100 µM |  |  |  |  |  |  |  | 
CCC(C)N1CN(c2ccccc2)C2(CCN(CCCC(=O)c3ccc(F)cc3)CC2)C1=O (centres undefined) | 13.4 µM | 36.4 µM | 27.5 µM | 16 µM | 16.8 µM | 16.2 µM | 16.5 µM | 27.4 µM | 23.2 µM | 4.51 µM |  |  |  |  |  |  |  | 
Cc1cc2nc(NS(=O)(=O)c3cc(C)c(Cl)cc3S)[nH]c2cc1C | > 100 µM | > 100 µM | > 100 µM | > 100 µM | > 100 µM | > 100 µM | > 100 µM | > 100 µM | > 100 µM | > 100 µM |  |  |  |  |  |  |  | 
CCOc1ccc(-n2c(=O)n3c(Nc4ccc(Cl)cc4)nc4c(c(=O)n(C)c(=O)n4C)n3c2=O)cc1 | > 100 µM | 89.6 µM | 39.7 µM | 99.2 µM | 39.4 µM | > 100 µM | 66 µM |  | 69.9 µM | > 100 µM |  |  |  |  |  |  |  | 
CC1(C)OCC(C2OC(=O)C(OCc3ccccc3)=C2OCc2ccccc2)O1 (centres undefined) | > 100 µM | > 100 µM | 79.4 µM | > 100 µM | 90.5 µM | > 100 µM | > 100 µM | > 100 µM | 73.1 µM | > 100 µM |  |  |  |  |  |  |  | 
COc1cc(C(=O)OC2CC(C)=CC[C@@]3(C)CC[C@](O)(C(C)C)C23)ccc1O (some centres undefined) | 32.4 µM | 34.6 µM | > 100 µM | 55.3 µM | 33.7 µM | 30 µM | 30.1 µM | 33.1 µM | 40.6 µM | 32.4 µM |  |  |  |  |  |  |  | 
N#CCCCCC12C3C(=O)N(c4ccccc4)C(=O)C3ON1O[C@@H]1C(=O)N(c3ccccc3)C(=O)[C@@H]12 (some centres undefined) | > 100 µM | > 100 µM | > 100 µM | > 100 µM | > 100 µM | > 100 µM | > 100 µM | > 100 µM | > 100 µM | > 100 µM |  |  |  |  |  |  |  | 
C/C(=N\Nc1ncnc2ccccc12)c1ccccn1 | 13.7 µM | > 52.6 µM | 33 µM | 45.6 µM | 16.4 µM | > 51.5 µM | 18.6 µM | 33 µM | > 9.41 µM | 1.07 µM |  |  |  |  |  |  |  | 
Cn1c2cc(Cl)ccc2c2ccc3c(c21)C(=O)C=CC3=O | > 100 µM | > 100 µM | > 60.1 µM | 17.9 µM | > 100 µM | 52.3 µM | 56.6 µM | > 64 µM | 10.3 µM | > 100 µM |  |  |  |  |  |  |  | 
O=C(O)[C@H]1NC[C@@H]2ON=C(Br)[C@@H]21 | > 100 µM | > 100 µM | > 100 µM | > 100 µM | > 100 µM | > 100 µM | > 100 µM | > 100 µM | > 100 µM | > 100 µM |  |  |  |  |  |  |  | 
O=C(/C=C\c1ccc(OCCCCCC[P+](c2ccccc2)(c2ccccc2)c2ccccc2)cc1)c1ccc2c(c1)OCCO2 | 2.6 µM | 6.72 µM | 2.21 µM | 2.55 µM | 1.95 µM | 3.42 µM | 3.81 µM |  | 8.57 µM |  | 1.21 µM | 1.5 µM | 0.985 µM | 1.11 µM | 0.376 µM | 0.415 µM | 1.58 µM | 2.32 µM
O=C1CSC(c2c(O)ccc3ccccc23)N1n1c(=S)[nH]nc(/C=C/c2c(O)ccc3ccccc23)c1=O (centres undefined) | 15.3 µM | 51.3 µM | 14.9 µM | 52.1 µM | 18.4 µM | 40.3 µM | 28.2 µM | 3.32 µM | > 100 µM | 22 µM |  |  |  |  |  |  |  | 
COc1ccc(C2c3c(-c4ccccc4)nn(-c4ccccc4)c3Oc3ncn(N)c(=N)c32)cc1OC (centres undefined) | 8.78 µM | 4.13 µM | 4.2 µM | > 25 µM | 26 µM | 7.33 µM | 4.24 µM | 4.17 µM | > 34.4 µM |  |  |  |  |  |  |  |  | 
COC(=O)Nc1nc2ccc(NS(=O)(=O)c3ccc(F)cc3)cc2[nH]1 | > 100 µM | > 100 µM | 11.2 µM | > 100 µM | > 100 µM | > 100 µM | 87 µM | > 100 µM | 36.5 µM | > 100 µM |  |  |  |  |  |  |  | 
